According to US6503532B1, “Pharmaceutical composition containing tetrahydrocannabinol and a transdermal/transcutaneous delivery method thereof” (Murty Pharmaceuticals, Inc., priority 2001, dated 2003):

Experiments:
[1] = 750 courses of oral therapy; cited from earlier work
[2] = in vivo; cited from earlier work
[3] = Solubility of THC in ethanol:water with or without permeation enhancer (HPLC); details: ethanol:water 70:30 v/v, aqueous with cosolvent or surfactant or cyclodextrin, thermodynamic from solid

SMILES: CCCCCc1cc(O)c2c(c1)OC(C)(C)[C@@H]1CCC(C)=C[C@@H]21 [THC, tetrahydrocannabinol]
- poor or only partial response to THC, share of courses [1]: approximately 65%
- Plasma levels for therapeutic effects [2]: ~10 nanograms/ml
- solubility at 24 h [3]: 20.2 mg/mL
